In US20050148616A1, “Inhibitor of TNF-alpha and IL-1beta production” (priority 2003, published 2005):
Structures can show the parent of a compound that is named as a salt.

Tests used:
TNF-α = assay: LPS-induced TNF-α production in human normal PBMCs (ELISA); format: cell-based
Experimental: (§1) PBMCs were isolated from fresh blood using a Ficoll-Paque Plus reagent (Amersham Bioscience) according to the protocol recommended by the manufacturer. The cells were suspended in a RPMI 1640 medium containing 10% FBS at a concentration of 1×10^5 cells/ml and seeded in a 96-well plate (1×10^4 cells total in each well). Each reaction was carried out in three wells.
(§2) 10 μl of pseudolycorine hydrochloride in DMSO was added to wells to obtain the final concentrations at 0.1, 0.3, 1, 3, 10, 30, and 100 μg/ml. In a positive control, dexamethason (DEX), an anti-inflammatory agent, instead of pseudolycorine hydrochloride, was added (final concentration 10 μM). In a negative control, 10 μl of the medium, instead of pseudolycorine hydrochloride, was added. The plate was placed in a 5% CO2 incubator at 37° C. for 15 minutes. After 10 μl aliquots of 100 μg/ml of LPS were added to all wells except for the negative control, the plate was placed in a 5% CO2 incubator at 37° C. overnight.
(§3) The plate was spun at 1000 rpm for 15 minutes and the supernatants were collected. The concentrations of TNF-α and IL-1β were measured by the TNF-α ELISA (Enzyme Linked Immunosorbent Assay) Kit and IL-1β ELISA Kit (Jingmei Bioengineer Technology). The inhibition ratios of TNF-α and IL-1β were calculated as follows: TNF-α Inhibition Ratio (%)=[TNF-α]control−[TNF-α]PHCl/[TNF-α]control×100% IL-1β Inhibition Ratio (%)=[IL-1β]control−[IL-1β]PHCl/[IL-1β]control×100% where [TNF-α]PHCl is the concentration of TNF-α in PBMCs treated with pseudolycorine hydrochloride and LPS, [TNF-α]control is the concentration of TNF-α in PBMCs treated with LPS and the medium, [IL-1β]PHCl is the concentration of IL-1β in PBMCs treated with pseudolycorine hydrochloride and LPS, and [IL-1β]control is the concentration of IL-1β in PBMCs treated with LPS and the medium.

IL-1β = assay: LPS-induced IL-1β production in human normal PBMCs (ELISA); format: cell-based
Experimental: as §1, §2, §3

[1] = compared with dexamethason (DEX) at 10 μM, LPS-stimulated human PBMCs

Compound: COc1cc2c(cc1O)[C@@H]1[C@H](O)[C@@H](O)C=C3CCN(C2)[C@H]31 [pseudolycorine hydrochloride]
- inhibition of expression of TNF-α, concentration dependence (TNF-α; 0.1-100 μg/ml, FIG. 3): concentration-dependent manner
- concentration at which expression of TNF-α was inhibited (TNF-α; LPS-stimulated human PBMCs, overnight, ELISA of supernatant, FIG. 1): ≥ 0.3 µg/mL
- concentration at which expression of TNF-α was inhibited more effectively than DEX (TNF-α; [1]): ≥ 3 µg/mL
- inhibition of expression of IL-1β, concentration dependence (IL-1β; 0.1-100 μg/ml, FIG. 4): concentration-dependent manner
- concentration at which expression of IL-1β was inhibited (IL-1β; LPS-stimulated human PBMCs, overnight, ELISA of supernatant, FIG. 2): ≥ 1 µg/mL
- concentration at which expression of IL-1β was inhibited more effectively than DEX (IL-1β; [1]): ≥ 10 µg/mL
